Laboratory results as given in patent US7109175B1, “Specific steady-state R-type CA2+ channel blockers and use thereof” (Universite de Sherbrooke, priority 2000, dated 2006).
“Also recorded” adds a separate entry of the source.

Key:
R-type Ca^2+ channel [1] = assay: Fura-2 [Ca]i, freshly isolated human aortic endothelial cells; assay type: cell-based; conditions: 10^−9M
Excerpt: (§1) This sustained increase of Ca^2+ induced by depolarization of the cell membrane or hormones such as PAF, ET-1 and bradykinin is due to the increase of Ca^2+ influx through the R-type Ca^2+ channels at the sarcolemmal membrane and/or the nuclear membrane (Bkaily G., 1994, supra; 1996, supra; 1997a–d, supra). Using Ca^2+ fluorescence probes Fura-2 or Fluo-3 and 2 and three-dimension Ca^2+ imaging techniques (Bkaily G., 1994, supra; 1996, supra; 1997a–d, supra), the effect of hormones and drugs could be easily tested. These two methods are used with single cells of different types as described above.
(§2) In another series of experiments we tested the effect of MV8608 (10^−9M) on R-type Ca^2+ channels stimulation-induced sustained increase of total intracellular Ca^2+ by sustained depolarization (FIGS. 15 to 19), by PAF (10^−9M) (FIGS. 16 to 19 and 21 to 22), by ET-1 (10^−9M) (FIGS. 16 and 19) and bradykinin (BK, 10^−6M) (FIGS. 20 and 21), in embryonic chick heart cells (FIGS. 15, 16, 19 and 20), 19-week-old human fetal heart cells (FIGS. 15, 17, 18 and 20), rabbit aortic vascular smooth muscle (VSM) cells (FIGS. 20 and 21), human aortic VSM cell-line (FIG. 23) and freshly isolated (FIG. 22) as well as in freshly isolated aortic endothelial cells (FIG. 22).

[2] = tested on: PAF-induced arterial vasodilatation and venconstriction; assay: Double-perfused mesenteric bed of the rat
Excerpt: The inhibitory properties of MV8608 are specific for PAF as the response to ACh (arterial) and AngII (venous) are unaffected by the pregnane-containing moiety.

R-type Ca^2+ channel [3] = assay: Cell-attached single channel recording of R-type Ca2+ channel, human aortic VSM cell line; assay type: cell-based; conditions: for R-type channel opening (probability, duration, frequency) / R-type single channel current: 10^−7M extra-patch pipette application; for R-type single channel amplitude and probability of opening: nifedipine 10^−6M present
Experimental: Also, for the R-type Ca^2+ channel current, the effect of the compounds are tested on the R-type Ca^2+ channel amplitude, voltage dependency and probability of opening, by using the cell-attached patch clamp technique (Bkaily 1994, supra; 1996, supra) and intra and extra patch pipette application of the drug.
In another series of experiments (n=7), using the cell attached patch clamp technique (Bkaily G. 1994, supra; Bkaily G. et al., 1996, supra), the effect of 10^−7M of MV8608 on the R-type Ca^2+ channel in human aortic vascular smooth muscle cell line was tested. […] In a second series of experiments (n=3), the patch pipette solution was free of MV8608 and after recording the single channel activities at different voltages, MV8608 (final concentration of 10^−7M) was applied to the extra-patch pipette solution containing 140 mM KCl (where the rest of the cell is bathing). This experiment was designed to verify whether MV8608 crossed the cell membrane and if so, whether its effect from the internal side of the channel under the patch is the same as that when applied at the outer side thereof. […] Such a pattern of increase of probability of opening and the open duration accompanied with the sporadic decrease of the single channel current amplitude has never been observed when MV8608 was applied at the outer side of the single channel under the patch pipette.
In another series of experiments (n=7), the effect of 10^−7M of MV8612 was tested on the R-type Ca^2+ in human aortic VSM cells, using the single channel cell attached recording technique and intra and extra patch pipette application of drugs.
In one series of experiments (n=3), MV8612 (total concentration, 10^−7M) was only applied to the patch pipette. […] As for MV8608, in one series of experiments (n=4), MV8612 (10^−7M) was only applied to the extra-patch pipette, in order to verify if the compound penetrates into the cytosol and if so, how it affects the R-type Ca^2+ channel activity.

R-type Ca^2+ channel [4] = assay: Fura-2 [Ca]i, human fetal heart cells; assay type: cell-based; conditions: 10^−9M, KCl 30 mM, PAF 10^−9M
Excerpt: These two methods are used with single cells of different types as described above.
as §2

[5] = tested on: contraction of rat uterus induced by BK; conditions: Calixto et al. 1987; cited from earlier work
R-type Ca^2+ channel [6] = assay: Fura-2 [Ca]i, rabbit aortic vascular smooth muscle cells; assay type: cell-based; conditions: 10^−9M
Excerpt: as §1
as §2, with “22). […]” for “22).”

R-type Ca^2+ channel [7] = assay: Fura-2 total [Ca]i, R-type channel stimulation-induced sustained increase, pooled cell types; assay type: cell-based, chick, human, rabbit
Excerpt: as §1, §2
Using Fura-2 [Ca]i measurement technique, in one series of experiments we tested the effect of MV8612 (10^−9M) on the stimulation of R-type Ca^2+-induced sustained increase of [Ca]i by sustained depolarization (FIGS. 26 and 27), PAF (10^−9M, FIG. 34) and ET-1 (FIGS. 33 and 34).

T-type Ca^2+ current = assay: Whole-cell voltage clamp, T-type Ca2+ current in heart cells; assay type: cell-based
Experimental: Single cells of different types in culture were prepared from biopsies of human, chick and rabbit. Known and accepted methods for the isolation of fast Na^+ current, T, L and R-type Ca^2+ channels as well as delayed outward K^+ current were used (Bkaily 1994, supra).
The compounds to be tested are added to the appropriate extracellular solution after recording a stable ionic current or normal steady-state level of […]. The effect of different concentrations of compounds are tested on the different type of current and [Ca]i of the different cell types. The effect of each concentration of the compounds in function of the time of exposure are then determined. Once the steady-state effect is reached, the second concentration is added, etc.
In another series of experiments (n=7), the effect of different concentrations of MV8608 were tested on the T-type Ca^2+ current (ICa) using the whole-cell voltage clamp technique and classical experimental conditions described elsewhere by the inventors (Bkaily G. et al., 1991, supra; 1992, supra; 1993, supra). […] As it can be seen in that figure, the inset effect of MV8608 in T-type ICa is immediate.

anaesthetized guinea pig = assay: Anaesthetized guinea pig, PAF bronchoconstriction and hypotension; assay type: in vivo
Excerpt: (§3) On the other hand, in vivo administered PAF, induced a marked hypotension in the anaesthetized rat and guinea pig.

anaesthetized rat = assay: Anaesthetized rat, blood pressure and PAF hypotension; assay type: in vivo; conditions: anaesthetized rat
Excerpt: as §3

tail-flick = assay: Tail-flick in mice; assay type: in vivo; conditions: i.p.

SMILES: C[C@]12CC[C@H](O)CC1=CC[C@@H]1[C@@H]2CC[C@]2(C)[C@H]3[C@@H]4OC[C@H]3O[C@@H](O)[C@]12O4 [MV8608, (15R, 16R, 20S)-14, 16:15,20:16,21-triepoxi-15,16-seco 14β, 17α-pregn-5-ene-3β, 15-diol]
- basal [Ca]i (R-type Ca^2+ channel [1]): decrease of basal sustained increase of [Ca]i
- response to ACh (arterial) and AngII (venous) [2]: unaffected
- PAF-induced responses (arterial vasodilatation, venconstriction) ([2]; 1 μM in FIG. 24): concentration-dependent inhibition; also recorded: blocked PAF
- R-type channel opening (probability, duration, frequency) (R-type Ca^2+ channel [3]): increased the probability and duration of opening
- R-type single channel current (R-type Ca^2+ channel [3]): spontaneous decrease and release of the blockade of the single channel current
- R-type single channel conductance (R-type Ca^2+ channel [3]; 10^−7M in the patch pipette): without affecting its single channel conductance
- R-type single channel amplitude and probability of opening (R-type Ca^2+ channel [3]; 10^−7M in the patch pipette): decreased the single channel amplitude and probability of opening
- sustained increase of [Ca]i (R-type Ca^2+ channel [4]): blockade
- inhibition of BK-induced contraction of rat uterus [5]: selective in its ability to inhibit the contraction of rat uterus induced by BK
- sustained increase of [Ca]i (R-type Ca^2+ channel [6]; BK 10^−6M and PAF 10^−9M): blockade
- time to complete block of sustained increase of [Ca]i (R-type Ca^2+ channel [7]; 10^−9M): 4 to 5 min
- sustained increase of [Ca]i via activation of R-type Ca2+ channel (R-type Ca^2+ channel [7]; 10^−9M, sustained depolarization, ET-1 10^−9M, PAF 10^−9M, BK 10^−6M): completely blocked; also recorded: blockade
- block of R-type Ca2+ channel across cell types (R-type Ca^2+ channel [7]; incl. MG63, FAOS-2, human VSM, endothelial cells, T-lymphocytes, platelets, AOSMC-9): blocked the R-type Ca^2+ channel in all cell types used
- overall effect on T-type ICa (T-type Ca^2+ current; 10^−9M and 10^−7M, heart cells): very weak depressor; also recorded: relative weak depressing effect
- effect on T-type ICa amplitude (T-type Ca^2+ current; 10^−9M to 10^−7M, n=7): had no effect

SMILES: COC1CC(OC2C(C)OC(O[C@H]3CC[C@@]4(C)C(=CC[C@@H]5[C@@H]4CC[C@]4(C)[C@H]6[C@@H]7OC[C@H]6O[C@@H](O)[C@]54O7)C3)CC2OC)OC(C)C1OC1CC(OC)C(OC2CC(OC)C(OC3OC(C)C(OC(C)=O)C(OC)C3OC(C)=O)C(C)O2)C(C)O1 (stereo partly shown) [MV8612]
- intrinsic hypotensive effect (anaesthetized guinea pig; guinea pig): devoid of marked intrinsic effect
- bronchoconstrictive responses to PAF (anaesthetized guinea pig; pretreatment): abolishes
- hypotensive effects of PAF (anaesthetized guinea pig; pretreatment): very significantly reduced; also recorded: abolishes
- hypotensive effect of PAF after withdrawal of treatment (anaesthetized guinea pig; same animal): fully restored
- hypotensive effect of PAF (anaesthetized rat): Identical inhibition
- R-type channel opening (probability, duration, frequency) (R-type Ca^2+ channel [3]): rapidly increased the R-type Ca^2+ opening frequence
- R-type single channel current (R-type Ca^2+ channel [3]): small decrease in the single channel current
- R-type single channel amplitude and probability of opening (R-type Ca^2+ channel [3]; 10^−7M in the patch pipette): significantly decreased
- decrease of R-type single Ca2+ channel current amplitude (R-type Ca^2+ channel [3]; 10^−7M via the patch pipette, n=3): about 75 % of the control value
- extent of blocking of R-type channel amplitude and probability of opening, comparison (R-type Ca^2+ channel [3]; intra-patch pipette, MV8612 versus MV8608): superior to that of MV8608
- sustained increase of [Ca]i (R-type Ca^2+ channel [6]; sustained depolarization and ET-1 10^−9M): blockade
- ID50 TAIL-FLICK (tail-flick): no effect
- sustained increase of [Ca]i induced by sustained depolarization and hormones (R-type Ca^2+ channel [7]; 10^−9M, PAF 10^−9M, ET-1): significantly decreased
